Here are results for eight compounds from patent publication US8309558B2, “Compounds for the treatment of hepatitis C” (Bristol-Myers Squibb Company, priority 2008, dated 2012).

One data set concerns HCV. The following applies: cited from earlier work.
Data set [1] relates to HUH-7 cells, constitutively expressing the HCV replicon. In words: HCV Replicon Luciferase Reporter Assay (384-well plates). It counts as cell-based. The following applies: Hepatitis C virus, untitled table after Table 1b, *EC50 determined using 384 well plate method. How it is done: The HCV replicon luciferase assay was developed to monitor the inhibitory effects of compounds described in the disclosure on HCV viral replication. Utilization of a replicon luciferase reporter assay was first described by Krieger et al (Krieger N, Lohmann V, and Bartenschlager R, J. Virol. 75(10):4614-4624 (2001)). HUH-7 cells, constitutively expressing the HCV replicon, were grown in Dulbecco's Modified Eagle Media (DMEM) (Gibco-BRL) containing 10% Fetal calf serum (FCS) (Sigma) and 1 mg/ml G418 (Gibco-BRL). Compounds were serially diluted 3 folds in DMSO for a twenty-point titration and subsequently transferred to sterile 384-well tissue-culture treated plates (Corning cat #3571). The plates were then seeded with 50 μl of cells at a density of 3.0×10^3 cells/well in DMEM containing 4% FCS (final DMSO concentration at 0.5%). After 3 days incubation at 37° C., cells were analyzed for Renilla Luciferase activity using the EnduRen as substrate (Promega cat #E6485). The EnduRen substrate was diluted in DMEM and then added to the plates to a final concentration of 7.5 μM. The plates were incubated for 2 hrs at 37° C. and then read immediately for 30 seconds with Viewlux Imager (PerkinElmer) using a luminescence program. To assess cytotoxicity of compounds, CC50 values were generated by multiplexing the EnduRen-containing plates with Cell Titer-Blue (Promega, cat #G8082). 3 μl of Cell-Titer Blue was added to each well and incubated for 8 hrs at 37° C. The fluorescence signal from each well was read, with an excitation wavelength at 525/10 nm and an emission wavelength of 598/10 nm, using the Viewlux Imager.
(Replicon systems follow genome replication, usually without infectious particles.)

For data set [2], the target named is T1, HCV NS5B RdRp genotype 1b (Hepatitis C virus genotype 1b, UniProt Q9WMX2).
T1 construct: The protein was expressed with an 18 amino acid C-terminal truncation to enhance the solubility; made in house; host or cells: E. coli BL21(DE3), pET21a vector
The data set can be described thus: Standard HCV NS5B RdRp enzyme assay. As to conditions: untitled table after Table 1b; HCV NS5B RdRp genotype 1b; read-out: IC50. The data set is classed as biochemical. In outline:
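C-terminally truncated (18 aa) genotype 1b NS5B from E. coli, 28 nM, with 6 nM polyA template, 180 nM biotinylated oligo-dT12 primer and 3H-UTP (0.29 μM total UTP). Hepes pH 7.5 buffer with 2% DMSO; 60 min at 30° C. EDTA stop, SPA read-out; IC50 from seven concentrations by four-parameter fit.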

T1 sequence (Q9WMX2 2420-2992): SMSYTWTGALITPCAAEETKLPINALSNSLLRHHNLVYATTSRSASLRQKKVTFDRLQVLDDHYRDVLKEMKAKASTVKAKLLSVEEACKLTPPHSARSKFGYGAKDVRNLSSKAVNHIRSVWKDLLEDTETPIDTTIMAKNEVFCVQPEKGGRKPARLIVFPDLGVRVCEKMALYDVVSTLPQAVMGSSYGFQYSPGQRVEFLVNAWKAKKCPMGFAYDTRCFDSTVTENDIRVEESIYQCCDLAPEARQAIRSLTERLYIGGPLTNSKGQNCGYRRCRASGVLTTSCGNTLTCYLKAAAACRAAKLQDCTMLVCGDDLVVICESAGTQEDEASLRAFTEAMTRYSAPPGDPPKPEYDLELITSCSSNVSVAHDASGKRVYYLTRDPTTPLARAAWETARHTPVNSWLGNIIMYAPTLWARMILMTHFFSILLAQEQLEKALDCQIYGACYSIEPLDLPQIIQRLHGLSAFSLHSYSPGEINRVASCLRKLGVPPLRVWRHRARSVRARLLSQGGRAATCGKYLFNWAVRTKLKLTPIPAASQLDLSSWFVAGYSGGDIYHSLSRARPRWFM

As to `CNC(=O)c1c(-c2ccc(F)cc2)oc2cc(N(CCO)S(C)(=O)=O)c(C3CC3)cc12` [HCV-796], the hepatic toxicity result in the data set on HCV (patients, extended dosing of the combination regimens) was “hepatic toxicity observed”. Also, the “HCV RNA levels in patients” value with HCV (single agent or combined with interferon and ribavirin) is “reduce HCV RNA levels in patients”.
On to `CNC(=O)c1c(-c2ccc(F)cc2)oc2ccc(-c3cc(C(=O)NC4(c5nc(C)no5)CC4)c(OC)cc3C)cc12` [drawing 598], for which, in data set [1], the response was half-maximal at 1.6 nM (EC50). The half-inhibitory concentration (IC50) in data set [2] was 20 nM.
Taken in the same sequence, the figures for `CNC(=O)c1c(-c2ccc(F)cc2)oc2ccc(-c3cc(C(=O)NC4(c5ncccn5)CC4)ccc3C)cc12` [drawing 599] were 0.304 nM and < 20 nM.
Taken in the same sequence, the figures for `CNC(=O)c1c(-c2ccc(F)cc2)oc2ccc(-c3cc(C(=O)NC4(c5ccccn5)CC4)cc(F)c3C)cc12` [drawing 600] were 0.425 nM and 10 nM.
Take `CNC(=O)c1c(-c2ccc(F)cc2)oc2ccc(-c3cc(C(=O)NC4(c5ccccc5)CC4)ccc3C)cc12` [drawing 601]: the EC50 in data set [1] was found to be 0.786 nM. For the same compound, the IC50 in data set [2] is 20 nM.
The like results for `CNC(=O)c1c(-c2ccc(F)cc2)oc2ccc(-c3cc(C(=O)NC4(c5nc(C)no5)CC4)ccc3C)cc12` [drawing 602] were, in that order, 0.805 nM and 7.2 nM.
The like results for `CNC(=O)c1c(-c2ccc(F)cc2)oc2ccc(-c3cc(C(=O)NC4(c5ccncc5)CC4)ccc3C)cc12` [drawing 603] were, in that order, 0.83 nM and 3.95 nM.
For the compound `CNC(=O)c1c(-c2ccc(F)cc2)oc2ccc(-c3cc(C(=O)NC4(c5ncccn5)CC4)ccc3C)c(F)c12` [drawing 623], a half-maximal effect in data set [1] (EC50) was put at 5.68 nM.

The term EC50 denotes the midpoint of the concentration-response curve. The low end stands for an effect from little substance, the high end for a need for much substance. By IC50 is commonly meant the midpoint of a concentration-inhibition curve.
